Measurements published in US20260262643A1, “HERBICIDAL BENZOXAZINES” (FMC CORPORATION, priority 2022, published 2026).

Key:
[1] = system: galium; assay: Test C postemergence; format: in vivo, Galium aparine; settings: 10 days, 0 to 100 scale, 0 no effect, 100 complete control
Procedure, shortened: (§1)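 Pre: seeds in loam/sand, directed soil spray. Post: 1–2 leaf plants, 2–10 cm. Cmpd in non-phytotoxic solvent + surfactant. Greenhouse 10 d; visual rating vs untreated, 0 = none, 100 = complete control.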

[2] = system: barnyardgrass; assay: Test C postemergence; format: in vivo, Echinochloa crusgalli; settings: 10 days, 0 to 100 scale, 0 no effect, 100 complete control
Procedure, shortened: as §1

[3] = system: ragweed; assay: Test C preemergence; format: in vivo, Ambrosia artemisiifolia
Procedure, shortened: as §1

[4] = system: corn; assay: Test C preemergence; format: in vivo, Zea mays
Excerpt: (§2) Seeds of plant species selected from barnyardgrass (Echinochloa crusgalli), blackgrass (Alopecurus myosuroides), corn (Zea mays), foxtail, giant (giant foxtail, Setaria faberi), green foxtail (Setaria viridis), goosegrass (Eleusine indica), kochia (Bassia scoparia), oat, wild (wild oat, Avena fatua), pigweed, palmer (palmer amaranth, palmer pigweed, Amaranthus palmeri), Pigweed, Redroot (redroot pigweed, Amaranthus retroflexus), ragweed (common ragweed, Ambrosia artemisiifolia), ryegrass, Italian ([…] ryegrass, Lolium multiflorum), soybean (Glycine max), and wheat (Triticum aestivum) were planted into a blend of loam soil and sand and treated preemergence with a directed soil spray using test chemicals formulated in a non-phytotoxic solvent mixture which included a surfactant. At the same time, plants selected from these crops and weed species and also galium (catchweed bedstraw, Galium aparine) and horseweed (Erigeron canadensis) were planted in pots containing the same blend of loam soil and sand and treated with postemergence applications of test chemicals formulated in the same manner. Plants ranged in height from 2 to 10 cm and were in the one- to two-leaf stage for the postemergence treatment. Treated plants and untreated controls were maintained in a greenhouse for 10 days, after which time all treated plants were compared to untreated controls and visually evaluated for injury. Plant response ratings, summarized in Table C, are based on a 0 to 100 scale where 0 is no effect and 100 is complete control. A dash (-) response means no test result.

[5] = system: oat, wild; assay: Test C preemergence; format: in vivo, Avena fatua
Excerpt: as §2

[6] = system: ryegrass, Italian; assay: Test C preemergence; format: in vivo, Lolium multiflorum
Procedure, shortened: as §1

[7] = system: blackgrass; assay: Test C preemergence; format: in vivo, Alopecurus myosuroides
Procedure, shortened: as §1

[8] = system: kochia; assay: Test C preemergence; format: in vivo, Bassia scoparia
Procedure, shortened: as §1

[9] = system: green foxtail; assay: Test C postemergence; format: in vivo, Setaria viridis; settings: 10 days, 0 to 100 scale, 0 no effect, 100 complete control
Procedure, shortened: as §1

[10] = system: ryegrass, Italian; assay: Test C postemergence; format: in vivo, Lolium multiflorum; settings: 10 days, 0 to 100 scale, 0 no effect, 100 complete control
Procedure, shortened: as §1

[11] = system: blackgrass; assay: Test C postemergence; format: in vivo, Alopecurus myosuroides; settings: 10 days, 0 to 100 scale, 0 no effect, 100 complete control
Procedure, shortened: as §1

[12] = system: soybean; assay: Test C preemergence; format: in vivo, Glycine max
Excerpt: as §2

[13] = system: kochia; assay: Test C postemergence; format: in vivo, Bassia scoparia; settings: 10 days, 0 to 100 scale, 0 no effect, 100 complete control
Procedure, shortened: as §1

[14] = system: horseweed; assay: Test C postemergence; format: in vivo, Erigeron canadensis; settings: 10 days, 0 to 100 scale, 0 no effect, 100 complete control
Procedure, shortened: as §1

[15] = system: pigweed, palmer; assay: Test C postemergence; format: in vivo, Amaranthus palmeri; settings: 10 days, 0 to 100 scale, 0 no effect, 100 complete control
Procedure, shortened: as §1

[16] = system: corn; assay: Test C postemergence; format: in vivo, Zea mays; settings: 10 days, 0 to 100 scale, 0 no effect, 100 complete control
Excerpt: as §2

[17] = system: wheat; assay: Test C postemergence; format: in vivo, Triticum aestivum; settings: 10 days, 0 to 100 scale, 0 no effect, 100 complete control
Excerpt: as §2

[18] = system: barnyardgrass; assay: Test C preemergence; format: in vivo, Echinochloa crusgalli
Procedure, shortened: as §1

[19] = system: oat, wild; assay: Test C postemergence; format: in vivo, Avena fatua; settings: 10 days, 0 to 100 scale, 0 no effect, 100 complete control
Excerpt: as §2

[20] = system: soybean; assay: Test C postemergence; format: in vivo, Glycine max; settings: 10 days, 0 to 100 scale, 0 no effect, 100 complete control
Excerpt: as §2

[21] = system: green foxtail; assay: Test C preemergence; format: in vivo, Setaria viridis
Procedure, shortened: as §1

[22] = system: pigweed, palmer; assay: Test C preemergence; format: in vivo, Amaranthus palmeri
Procedure, shortened: as §1

[23] = system: ragweed; assay: Test C postemergence; format: in vivo, Ambrosia artemisiifolia; settings: 10 days, 0 to 100 scale, 0 no effect, 100 complete control
Procedure, shortened: as §1

[24] = system: wheat; assay: Test C preemergence; format: in vivo, Triticum aestivum
Excerpt: as §2

[25] = Preemergence, 31 g ai/ha, 0 to 100 scale, 0 no effect, 100 complete control
[26] = Test C, preemergence, 125 g ai/ha, 0 to 100 scale (0 no effect, 100 complete control)

For Cc1ccc(-n2cnc(C3(O)CCCC3)n2)cc1C(=O)N1C[C@H](C)Oc2c(Cl)cccc21 [Compound 193], the “Plant response rating, Galium” value ([1]; 125 g ai/ha, postemergence) was 100, the “Plant response rating, Galium” value ([1]; Postemergence, 31 g ai/ha) was 60 and the “Plant response rating, Barnyardgrass” value ([2]; 125 g ai/ha, postemergence) was 40. The “Plant response rating, Barnyardgrass” value ([2]; Postemergence, 31 g ai/ha) was 10, the “Plant response rating, Ragweed” value [3, 25] was 0 and the “Ragweed plant response rating” value [3, 26] was 60. For the same compound, the “Plant response rating, Corn” value [4, 25] was 0, the “Corn plant response rating” value [4, 26] was 0 and the “Plant response rating, Oat, Wild” value [5, 25] was 0. For the same compound, the “Oat, Wild plant response rating” value [5, 26] was 20, the “Plant response rating, Ryegrass, Italian” value [6, 25] was 60 and the “Ryegrass, Italian plant response rating” value [6, 26] was 80. For the same compound, the “Plant response rating, Blackgrass” value [7, 25] was 0, the “Blackgrass plant response rating” value [7, 26] was 0 and the “Plant response rating, Kochia” value [8, 25] was 60. The “Kochia plant response rating” value [8, 26] was 100, the “Plant response rating, Foxtail, Green” value ([9]; 125 g ai/ha, postemergence) was 80 and the “Plant response rating, Foxtail, Green” value ([9]; Postemergence, 31 g ai/ha) was 30. The “Plant response rating, Ryegrass, Italian” value ([10]; 125 g ai/ha, postemergence) was 50, the “Plant response rating, Ryegrass, Italian” value ([10]; Postemergence, 31 g ai/ha) was 20 and the “Plant response rating, Blackgrass” value ([11]; 125 g ai/ha, postemergence) was 60. The “Plant response rating, Blackgrass” value ([11]; Postemergence, 31 g ai/ha) was 0, the “Plant response rating, Soybean” value [12, 25] was 0 and the “Soybean plant response rating” value [12, 26] was 90. The “Plant response rating, Kochia” value ([13]; 125 g ai/ha, postemergence) was 80, the “Plant response rating, Kochia” value ([13]; Postemergence, 31 g ai/ha) was 20 and the “Plant response rating, Horseweed” value ([14]; 125 g ai/ha, postemergence) was 0. For the same compound, the “Plant response rating, Horseweed” value ([14]; Postemergence, 31 g ai/ha) was 0, the “Plant response rating, Pigweed, Palmer” value ([15]; 125 g ai/ha, postemergence) was 70 and the “Plant response rating, Pigweed, Palmer” value ([15]; Postemergence, 31 g ai/ha) was 20. The “Plant response rating, Corn” value ([16]; 125 g ai/ha, postemergence) was 0, the “Plant response rating, Corn” value ([16]; Postemergence, 31 g ai/ha) was 0 and the “Plant response rating, Wheat” value ([17]; 125 g ai/ha, postemergence) was 10. The “Plant response rating, Wheat” value ([17]; Postemergence, 31 g ai/ha) was 10, the “Plant response rating, Barnyardgrass” value [18, 25] was 10 and the “Barnyardgrass plant response rating” value [18, 26] was 80. For the same compound, the “Plant response rating, Oat, Wild” value ([19]; 125 g ai/ha, postemergence) was 0, the “Plant response rating, Oat, Wild” value ([19]; Postemergence, 31 g ai/ha) was 0 and the “Plant response rating, Soybean” value ([20]; 125 g ai/ha, postemergence) was 100. For the same compound, the “Plant response rating, Soybean” value ([20]; Postemergence, 31 g ai/ha) was 100, the “Plant response rating, Foxtail, Green” value [21, 25] was 0 and the “Foxtail, Green plant response rating” value [21, 26] was 0. The “Plant response rating, Pigweed, Palmer” value [22, 25] was 60, the “Pigweed, Palmer plant response rating” value [22, 26] was 90 and the “Plant response rating, Ragweed” value ([23]; 125 g ai/ha, postemergence) was 60. The “Plant response rating, Ragweed” value ([23]; Postemergence, 31 g ai/ha) was 50, the “Plant response rating, Wheat” value [24, 25] was 0 and the “Wheat plant response rating” value [24, 26] was 0.
